Like-named read-outs stand apart in the source and are kept apart here.
Tests used:
[1] = tested on: agitation in subjects suffering from schizophrenia
[2] = human, in vivo, iv
Excerpt: Mean infusion rate is 0.36 mcg/kg/hr with the maximum rate ranging from about 0.2 mcg/kg/hr to about 0.6 mcg/kg/hr (see FIGS. 18 to 20).

[3] = cited from earlier work
plasma proteins = details: cited from earlier work
pregnant rats = details: rat, cited from earlier work
pregnant rabbits = details: rabbit; intravenous up to 96 mcg/kg/day, GD 6 to 18; cited from earlier work
[4] = tested on: pregnant rats and offspring; details: rat, cited from earlier work
[5] = tested on: bacterial reverse mutation; details: in vitro Ames bacterial reverse mutation test; cited from earlier work
mouse lymphoma cell = details: mammalian mouse lymphoma cell forward mutation assay; cited from earlier work
human lymphocyte = details: cited from earlier work
[6] = tested on: bone marrow of CD-1 and NMRI mice; details: cited from earlier work
male or female rats = details: daily subcutaneous injections up to 54 mcg/kg; cited from earlier work
cytochrome P450 = details: human liver microsomes; cited from earlier work
[7] = tested on: adult patients and healthy adult subjects; details: loading IV bolus of undiluted drug, 19.4 mcg/kg; one patient; cited from earlier work
[8] = cited from earlier work; remark: listed apart in the source
[9] = radiolabeled, intravenous, after nine days

In the case of `Cc1cccc([C@H](C)c2cnc[nH]2)c1C` [Dexmedetomidine, (+) 4-(S)-[1-(2,3-dimethylphenyl)ethyl]-1H-imidazole], the PEC value ([1]; Patient 1 (treatment arm), 0 min after infusion start) is reported as 9, the PEC value ([1]; Patient 1 (treatment arm), 15 min after infusion start) is reported as 5 and the PEC value ([1]; Patient 2 (treatment arm), 0 min after infusion start) is reported as 16. For the same molecule, the PEC value ([1]; Patient 2 (treatment arm), 15 min after infusion start) was 13, the PEC value ([1]; Patient 2 (treatment arm), 30 min after infusion start) was 12 and the PEC value ([1]; Patient 2 (treatment arm), 45 min after infusion start) was 11. It also gave a PEC value ([1]; Patient 2 (treatment arm), 60 min after infusion start) of 9, a PEC value ([1]; Patient 2 (treatment arm), 75 min after infusion start) of 7 and a PEC value ([1]; Patient 3 (treatment arm), 0 min after infusion start) of 12. The PEC value ([1]; Patient 3 (treatment arm), 15 min after infusion start) was 12, the PEC value ([1]; Patient 3 (treatment arm), 30 min after infusion start) was 10 and the PEC value ([1]; Patient 3 (treatment arm), 45 min after infusion start) was 7. For the same molecule, the PEC value ([1]; Patient 3 (treatment arm), 60 min after infusion start) was 6, the PEC value ([1]; Patient 4 (treatment arm), 0 min after infusion start) was 9 and the PEC value ([1]; Patient 4 (treatment arm), 15 min after infusion start) was 9. The PEC value ([1]; Patient 4 (treatment arm), 30 min after infusion start) was 8, the PEC value ([1]; Patient 4 (treatment arm), 45 min after infusion start) was 8 and the PEC value ([1]; Patient 4 (treatment arm), 60 min after infusion start) was 7. For the same molecule, the PEC value ([1]; Patient 4 (treatment arm), 75 min after infusion start) was 7, the PEC value ([1]; Patient 4 (treatment arm), 90 min after infusion start) was 7 and the PEC value ([1]; Patient 4 (treatment arm), 120 min after infusion start) was 7. The PEC value ([1]; Patient 4 (treatment arm), […] after infusion start) was 7, the PEC value ([1]; Patient 11 (treatment arm), 0 min after infusion start) was 13 and the PEC value ([1]; Patient 11 (treatment arm), 15 min after infusion start) was 13. The PEC value ([1]; Patient 11 (treatment arm), 30 min after infusion start) was 11, the PEC value ([1]; Patient 11 (treatment arm), 45 min after infusion start) was 9 and the PEC value ([1]; Patient 11 (treatment arm), 60 min after infusion start) was 9. For the same molecule, the PEC value ([1]; Patient 11 (treatment arm), 75 min after infusion start) was 7, the PEC value ([1]; Patient 12 (treatment arm), 0 min after infusion start) was 13 and the PEC value ([1]; Patient 12 (treatment arm), 15 min after infusion start) was 13. It also gave a PEC value ([1]; Patient 12 (treatment arm), 30 min after infusion start) of 13, a PEC value ([1]; Patient 12 (treatment arm), 45 min after infusion start) of 10 and a PEC value ([1]; Patient 12 (treatment arm), 60 min after infusion start) of 10. It also gave a PEC value ([1]; Patient 12 (treatment arm), 75 min after infusion start) of 8, a PEC value ([1]; Patient 12 (treatment arm), 90 min after infusion start) of 6 and a PEC value ([1]; Patient 12 (treatment arm), […] after infusion start) of 5. It also gave a PEC value ([1]; Patient 14 (treatment arm), 0 min after infusion start) of 10, a PEC value ([1]; Patient 14 (treatment arm), 15 min after infusion start) of 9 and a PEC value ([1]; Patient 14 (treatment arm), 30 min after infusion start) of 6. The PEC value ([1]; Patient 14 (treatment arm), 45 min after infusion start) was 6, the PEC value ([1]; Patient 14 (treatment arm), 60 min after infusion start) was 5 and the PEC value ([1]; Patient 14 (treatment arm), 75 min after infusion start) was 5. The PEC value ([1]; Patient 16 (treatment arm), 0 min after infusion start) was 10, the PEC value ([1]; Patient 16 (treatment arm), 15 min after infusion start) was 9 and the PEC value ([1]; Patient 16 (treatment arm), 30 min after infusion start) was 6. It also gave a PEC value ([1]; Patient 16 (treatment arm), 45 min after infusion start) of 6, a PEC value ([1]; Patient 16 (treatment arm), 60 min after infusion start) of 7 and a PEC value ([1]; Patient 16 (treatment arm), 75 min after infusion start) of 5. It also gave a PEC value ([1]; Patient 17 (treatment arm), 0 min after infusion start) of 10, a PEC value ([1]; Patient 17 (treatment arm), 15 min after infusion start) of 8 and a PEC value ([1]; Patient 17 (treatment arm), 30 min after infusion start) of 7. For the same molecule, the PEC value ([1]; Patient 17 (treatment arm), 45 min after infusion start) was 5, the “Time to reach Cmax” value [2] was 15 to 105 min and the “Pharmacokinetics (Cmax, Tmax, AUC, t½, CL, and V) in renal impairment versus normal renal function” value ([3]; creatinine clearance <30 mL/minute) was “not significantly different”. The Extent of biotransformation ([3]; direct glucuronidation and cytochrome P450 (primarily CYP2A6)) was “almost complete biotransformation”, the Clearance ([3]; intravenous administration) was “approximately 39 L/h” and the “Steady-state volume of distribution (Vss)” value ([3]; intravenous administration) was “approximately 118 liters”. For the same molecule, the “Radioactivity recovered in the feces” value [3, 9] was 4%, the “Radioactivity recovered in the urine” value [3, 9] was 95% and the “Aliphatic hydroxylation products, share of the dose in urine” value ([3]; radiolabeled, intravenous) was “approximately 14%”. For the same molecule, the “N-methylation products, share of the dose in urine” value ([3]; radiolabeled, intravenous) was “approximately 18%”, the “Products of N-glucuronidation, share of cumulative urinary excretion” value ([3]; radiolabeled, intravenous) was “approximately 34%” and the “Share of urinary radioactivity excreted within 24 hours after the infusion” value ([3]; radiolabeled, intravenous) was “Approximately 85%”. For the same molecule, the “Unchanged drug in the urine” value ([3]; radiolabeled, intravenous) was “No unchanged dexmedetomidine was detected”, the “Urinary metabolites not identified” value ([3]; radiolabeled, intravenous) was “Approximately 28%” and the “Clearance in hepatic impairment (Child-Pugh Class A, B, or C)” value ([3]; versus normal hepatic function) was “decreased”. The “Fraction bound to plasma proteins in hepatic impairment versus healthy subjects” value (plasma proteins) was “significantly decreased”, the Average protein binding (plasma proteins; plasma of healthy male and female subjects) was 94% and the Malformations (pregnant rats; any dose level) was “No malformations”. The Embryo-fetal findings (pregnant rats; subcutaneous 20 mcg/kg/day) was “No embryo-fetal toxicity”, the Embryo-fetal findings (pregnant rats; subcutaneous 200 mcg/kg/day, GD 5 to 16, with maternal toxicity) was “Increased post-implantation losses and reduced live pups” and the “Malformation or embryo-fetal toxicity” value (pregnant rabbits) was “No malformation or embryo-fetal toxicity”. The “Developmental findings when first generation offspring were mated” value ([4]; 32 mcg/kg/day) was “Decreased viability of second generation offspring and an increase in early implantation loss along with delayed motor development”, the Developmental findings ([4]; subcutaneous 8 mcg/kg/day, GD 16 to PND 25) was “Reduced pup and adult offspring weights and grip strength” and the Mutagenicity [5] was “not mutagenic”. For the same molecule, the Mutagenicity (mouse lymphoma cell) was “not mutagenic”, the Clastogenicity (human lymphocyte; absence or presence of human liver S9 metabolic activation) was “not clastogenic” and the Clastogenicity (human lymphocyte; presence of rat liver S9 metabolic activation) was “weak clastogenic response”. For the same molecule, the Clastogenicity ([6]; CD-1 mice) was “not clastogenic”, the Clastogenicity ([6]; NMRI mice) was “some evidence for clastogenicity” and the Fertility (male or female rats) was “not affected”. The “Cytochrome P450 mediated drug interactions” value (cytochrome P450) was “no evidence of cytochrome P450 mediated drug interactions”, the Effects of overdose [7] was “cardiac arrest” and the Placental transfer ([8]; available data in humans) was “crosses the placenta”. The “Presence in human milk” value ([8]; following intravenous administration, published literature) was “presence of dexmedetomidine in human milk”.
